In one data set the test system is VEEV TrD. Nature of the data set: microbe, parasite or virus in culture. In kind it is cell-based. The conditions noted are these: Venezuelan equine encephalitis virus.
The test system of a further data set is JEV. The experiment in a line: Dose-response EC50, JEV. In kind it is cell-based. The conditions noted are these: Japanese encephalitis virus.
The test system of the next data set is WEEV. The experiment in a line: cells. In kind it is cell-based, West equine encephalitis virus California.
The subject of a further data set is LCMV-ARM. It counts as cell-based, Lymphocytic Choriomeningitis Virus.
The test system of a further data set is HEK 293T cells. Nature of the data set: ApoTox-Glo Triplex viability, cytotoxicity, apoptosis assay. The note with it: four days exposure.

This is an account of results in patent publication US20180086749A1, “INHIBITORS OF VIRUSES” (priority 2015, published 2018).

Each structure is given as a SMILES string. Read-outs that look alike come from different tables or passages of the source.

For `CN(C(=O)Cc1sccc1F)c1nc2c(s1)CCCC2` [ML416, 2-(3-fluorothiophen-2-yl)-N-methyl-N-(4,5,6,7-tetrahydro-1,3-benzothiazol-2-yl)acetamide], the EC50 worked out at 0.46 µM with VEEV TrD; 1.9 µM in the data set on JEV; 1.9 µM with JEV (Vero 76, JEV, Vero76, MOI 0.05, Table 3, read-out: EC50); 0.96 µM in the data set on WEEV. The “Log titer inhibition at 5 μM” value with LCMV-ARM is given as −3.466 Log. Further, the “Log reduction in progeny virus titers” value with LCMV-ARM (5 μM) is listed as “greater than 3 Log”. Also, the “concentration up to which no significant cytotoxicity and apoptosis” value in the data set on HEK 293T cells is “up to 25 μM”.

By EC50 is commonly meant the midpoint of the concentration-response curve.
